According to paper PMC5387716, “Discovery of monocarbonyl curcumin-BTP hybrids as STAT3 inhibitors for drug-sensitive and drug-resistant breast cancer therapy” (Scientific Reports, 2017):

Columns and labels:
Type in all cases: cell-based, human
Bcl-2 = assay: Western blot of Bcl-2; details: MCF-7 and MCF-7/DOX cells, 24 h
Description: (§1) MCF-7 or MCF-7/DOX cells were incubated with various concentrations of 6b for 24 h. After trypsinization, cells were treated with 1× RIPA lysis buffer (50 mM Tris–HCl, pH 7.4, 150 mM NaCl, 0.25% deoxycholic acid, 1% NP-40, 1 mM EDTA and protease inhibitors) (Amresco, Solon, USA) to extract the total proteins. An aliquot of proteins from the total cell lysates (30 to 60 μg/lane) was separated by sodium dodecyl sulfate (10%) polyacrylamide gel electrophoresis (SDS–PAGE, Bio-Rad Laboratories, Hercules, CA), wet-transferred to NC membrane (Bio-Rad Laboratories, Hercules, CA) and blotted with primary antibodies specific for STAT3, p-STAT3, p-Jak2, Jak2, p-Src, Src, Erk, P-Erk, PARP, cleaved PARP, Bcl-2, Bax, Cyclin D1, P-gp and GAPDH. Bound immuno-complexes were detected using ChemiDOC™ XRS + system (Bio-Rad Laboratories, Hercules, CA).

Cyclin D1 = assay: Western blot of Cyclin D1; details: MCF-7 and MCF-7/DOX cells, 24 h
Description: as §1

Bax = assay: Western blot of Bax; details: MCF-7 and MCF-7/DOX cells, 24 h
Description: as §1

Cyclin D1 gene = assay: Quantitative real-time RT-PCR of Cyclin D1; details: 24 h
Description: (§2) Levels of mRNA expression were analyzed with the RT-PCR assay, with total RNA isolated from MCF-7 or MCF-7/DOX cells using an EASYspin Plus tissue/cell RNA extraction kit (Aidlab Biotechnologies Co. Ltd). RNA was quantified by measuring absorption at 260 nm and 1 μg of RNA was reverse transcribed to cDNA using the Transcriptor First Strand cDNA Synthesis Kit (Roche Diagnostics, Basel, Switzerland). Thermal cycling conditions included 95 °C initial denaturation for 5 min, followed by 40 cycles of denaturation (10 s at 95 °C), annealing (15 s at 60 °C) and extension (15 s at 72 °C with a single fluorescence measurement), a melt curve program (60–95 °C with a 0.11 °C/s heat increase and continuous fluorescence measurement) and a cooling step to 40 °C. The Δ cycle threshold method was used for the calculation of relative differences in mRNA abundance with a LightCycler 480 (Roche Molecular Biochemicals, Mannheim, Germany). The data were normalized to the expression of GAPDH. The results were expressed as fold-changes. The RT-PCR primers that were used in this study are listed in the supporting information.

Bax gene = assay: Quantitative real-time RT-PCR of Bax; details: 24 h
Description: as §2

[1] = test system: PARP, Caspase 9 and Caspase 3; assay: Western blot of cleaved PARP, Caspase 9 and Caspase 3
MCF-7/DOX cells [2] = assay: Annexin V-APC/7-AAD flow cytometry of apoptosis, MCF-7/DOX; details: 24 h
Description: MCF-7, MCF-7/DOX or MCF-10A cells, at a density of 2.5 × 10^5 cells per well, were cultured in regular growth medium in 6-well plates for 24 h and treated in duplicate with different concentrations of 6b or curcumin for 24 h. The cells were harvested, washed and stained with 5 μL of Annexin V-APC and 5 μL of 7-AAD at room temperature for 15 min. Cells were then analyzed by flow cytometry (488 nm excitation and 600 nm emission filters) using a BD FACSCalibur flow cytometer (Becton & Dickinson Company, Franklin Lakes, NJ).

MCF-7 cells = assay: Colony survival assay, MCF-7; details: 24 h treatment, 14 d culture
Description: MCF-7 or MCF-7/DOX cells were cultured a 6-well plate at a density of 800–1,000 cells/well with regular growth medium. Cells were treated for 24 h with the vehicle and 6b at 0.15–1 μM on the following day. Cells were allowed to grow for 10–14 d until colonies were visible. Crystal violet solution (Sigma, St. Louis, MO, USA) was used to stain the colonies for 4 hours and colonies were imaged.

MCF-7/DOX cells [3] = assay: Flow cytometry of the cell cycle, MCF-7/DOX; details: 24 h
Description: MCF-7 or MCF-7/DOX cells were plated in 6-well culture plates (1.5 × 10^5 cells per well). After incubation overnight, various concentrations of 6b or curcumin were added and cells were incubated for 24 h. Cells were harvested, washed with cold PBS, and incubated with pre-cooled 70% ethanol for a minimum of 4 h at 4 °C to fix them. The cells were then centrifuged, carefully aspirated from the supernatant, and re-suspended in a propidium iodide (final concentration, 40 μg/ml) and RNase A (final concentration, 100 μg/ml) solution at a final cell density of 0.5 × 10^6 cells/ml. The suspension was incubated at 37 °C for 30 min prior to analysis by flow cytometry.

MCF-7/DOX cells [4] = assay: ROS detection by DCFH-DA flow cytometry, MCF-7/DOX; details: different concentrations (1, 2, 4 μM), 24 h
Description: MCF-7 or MCF-7/DOX cells were seeded at a density of 3 × 10^5 cells per well of a 6-well plate and treated with various concentrations of 6b (0, 1, 2, 4 μM) or 4 μM curcumin for 24 h. DCFH-DA was dissolved in serum-free medium and diluted to a final concentration of 10 μM. After treatment with 6b, the growth media was replaced with serum-free medium containing the probe. After incubation for 20 min at 37 °C, cells were washed with serum-free medium twice, digested by trypsin and resuspended in pre-warmed PBS buffer. The samples were then subjected to a flow cytometry assay using a BD FACSCalibur flow cytometer (Becton & Dickinson Company, Franklin Lakes, NJ).

STAT1 = assay: IFN-γ induced STAT1 phosphorylation (western blot); details: MCF-7, 0.5–4 μM, 6 h, IFN-γ 50 ng/mL 30 min; compared with effect on IL-6-induced p-STAT3
Erk1/2 = assay: Western blot of p-Erk1/2; details: MCF-7 and MCF-7/DOX cells, 24 h
Description: as §1

Q: With `COc1ccc(/C=C/C(=O)N2CCN(C(=O)C3=Cc4cc(Br)ccc4S3(=O)=O)CC2)cc1` [Compound 6b, (E)-1-(4-(5-bromo-1,1-dioxidobenzo[b]thiophene-2-carbonyl)piperazin-1-yl)-3-(4-methoxyphenyl)prop-2-en-1-one] as the molecule, how does the “expression of Bcl-2 (protein)” value (Bcl-2) read?
A: inhibited

Q: And the “expression of Cyclin D1 (protein)” value (Cyclin D1)?
A: inhibited

Q: What about the “expression of Bax (protein)” value (Bax) of the same molecule?
A: increased

Q: What about the “decrease in the gene expression level of Cyclin D1” value (shortened to “decrease”) (Cyclin D1 gene; MCF-7/DOX cells, 1.0 μM) of the same molecule?
A: 18.5%

Q: What about the “decrease” value (Cyclin D1 gene; MCF-7/DOX cells, 2.0 μM) of the same molecule?
A: 51.0%

Q: What about the “decrease” value (Cyclin D1 gene; MCF-7/DOX cells, 4.0 μM) of the same molecule?
A: 75.0%

Q: What about the “Cyclin D1 gene level (in words)” value (Cyclin D1 gene; MCF-7 and MCF-7/DOX cells) of the same molecule?
A: decreased in a dose-dependent manner

Q: And the “decrease” value (Cyclin D1 gene; MCF-7 cells, 1.0 μM)?
A: 16.0%

Q: What about the “decrease” value (Cyclin D1 gene; MCF-7 cells, 2.0 μM) of the same molecule?
A: 28.4%

Q: And the “decrease” value (Cyclin D1 gene; MCF-7 cells, 4.0 μM)?
A: 45.5%

Q: And the “Bax gene expression increase” value (Bax gene; MCF-7/DOX cells, 1.0 μM)?
A: 14.0%

Q: And the “Bax gene expression increase” value (Bax gene; MCF-7/DOX cells, 2.0 μM)?
A: 76.5%

Q: What about the “Bax gene expression increase” value (Bax gene; MCF-7/DOX cells, 4.0 μM) of the same molecule?
A: 125.0%

Q: What about the “Bax gene level (in words)” value (Bax gene; MCF-7 and MCF-7/DOX cells) of the same molecule?
A: upregulated

Q: And the “Bax gene expression increase” value (Bax gene; MCF-7 cells, 1.0 μM)?
A: 15.0%

Q: And the “Bax gene expression increase” value (Bax gene; MCF-7 cells, 2.0 μM)?
A: 71.5%

Q: And the “Bax gene expression increase” value (Bax gene; MCF-7 cells, 4.0 μM)?
A: 97.5%

Q: And the “cleavage of PARP, Caspase 9 and Caspase 3” value ([1]; MCF-7 and MCF-7/DOX cells)?
A: induced the cleavage

Q: And the “cleaved PARP” value ([1]; MCF-10A cells, concentrations up to 4 μM)?
A: little

Q: And the apoptosis rate (MCF-7/DOX cells [2]; 1 μM)?
A: 18.5%

Q: What about the apoptosis rate (MCF-7/DOX cells [2]; 2 μM) of the same molecule?
A: 50.1%

Q: And the apoptosis rate (MCF-7/DOX cells [2]; 4 μM)?
A: 66.4%

Q: And the “clonogenic ability / colony formation” value (MCF-7 cells; MCF-7, 0.25 μM)?
A: significant reduction in clonogenic ability

Q: What about the “clonogenic ability / colony formation” value (MCF-7 cells; MCF-7, 0.5 μM) of the same molecule?
A: almost a cessation of colony formation

Q: What about the “cells in the Sub-G1 phase” value (MCF-7/DOX cells [3]) of the same molecule?
A: significant increase

Q: What about the “percentage of cells in the G0/G1 phase” value (MCF-7/DOX cells [3]) of the same molecule?
A: increased

Q: And the “increase of ROS levels” value (MCF-7/DOX cells [4])?
A: 2–8 fold

Q: And the “IFN-γ-induced STAT1 phosphorylation” value (STAT1)?
A: less of an effect

Q: What about the p-Erk1/2 expression (Erk1/2) of the same molecule?
A: little effect
